# Entries after “also recorded” stand apart in the source; their conditions may differ. Where a name gives a salt, the structure may show the parent alone. Read-outs that look alike come from different tables or passages of the source.
# What was measured:
# certain animal tumors = settings: in vivo; cited from earlier work
# P388 and U937 cells = settings: Bose et al., 1995; cited from earlier work
# [1] = cited from earlier work
# MCF-7-AdrR cells [2] = test: Metabolism of sphinganine, MCF-7-AdrR cells (TLC charring); format: cell-based; settings: 5.0 μM sphinganine:BSA, FIG. 4
# Description: (§1) FIG. 4. Metabolism of sphinganine by MCF-7-wt and MCF-7-AdrR cells. Cells, in 100×20 mm culture dishes, were incubated with 5.0 μM sphinganine:BSA (prepared at a 1:1 molar ratio) for the times indicated. Lipids were extracted, a 100 μg lipid aliquot of each sample was resolved by TLC in solvent system II, and the TLC was charred as described in Example I. The data shown are representative of two independent experiments which gave similar results.
# (§2) Lipid Mass Analysis--Cell lipids were analyzed by TLC separation and charring of the chromatogram. Briefly, total cellular lipids were extracted by the method of Bligh and Dyer (1959), and equal aliquots (by weight) from each sample were spotted on TLC plates. The plates were developed using solvent system I or II (see below), air-dried for 1 h and sprayed using a 35% solution of sulfuric acid in water. The lipids were charred by heating in an oven at 180° C. for 30 min, and resulting black bands were visualized and photographed. Bands can be further quantitated by photodensitometric scanning.
# MCF-7-wt cells = test: Metabolism of sphinganine, MCF-7-wt cells (TLC charring); format: cell-based; settings: 5.0 μM sphinganine:BSA, FIG. 4
# Description: as §1, §2
# MCF-7-AdrR cells [3] = test: Cell proliferation (MTS) assay: adriamycin toxicity and chemosensitization
# Text: FIG. 15A and FIG. 15B. […] FIG. 15B: Glycosylceramide levels in MDR Cells following drug treatment. […] In order to avoid differences in [^3 H]glycosylceramide values which account for cell death, the same amount of total radioactive lipid from each sample was applied to TLC separation.
# FIG. 16A and FIG. 16B. […] FIG. 16A: Effect of PPMP on cellular glycosylceramide levels. […] [^3 H]Glycosylceramide was quantitated as described in the legend to FIG. 9.
# Vehicle (acetone, ethanol) was always added to control (minus drug) wells. The cytotoxic activity of a drug was determined using the Promega CellTiter 96™ AQueous MTS cell proliferation assay kit. Each experimental point was performed in six replicates. MTS/PMS solution (20 μl/well) was aliquoted into all wells, and the cells were incubated for 2-3 h, or until an O.D. of 0.9-1.0 was obtained as a highest reading. Thereafter, absorbence at 490 nm was recorded using an ELISA plate reader (Molecular Devices, San Diego, Calif.).
# [4] = system: glycosylceramide synthesis in MCF-7-AdrR cells; test: Glycosylceramide levels in MDR cells following drug treatment, [3H]serine 48 h; format: cell-based; settings: read-out: diminution in glycosylceramide formation, adriamycin alone
# [5] = system: OVCAR-3 (MDR ovarian carcinoma); settings: clinically relevant concentrations (Rogan et al., 1984); cited from earlier work
# [6] = system: K562 erytiroleukemia cells; settings: Yan et al., 1995; cited from earlier work
# PKC = settings: Sachs et al., 1995; cited from earlier work
# [7] = system: MCF-7-doxorubicin resistant cells; settings: Sachs et al., 1995; cited from earlier work
# [8] = system: chronic myelogenous leukemia; settings: previously untreated chronic myelogenous leukemia; cited from earlier work
# [9] = system: lymphomas, particularly Hodgkin's disease; settings: cited from earlier work
# [10] = in vivo; cited from earlier work
structure (smiles),measurement,setting,value
N[C@H](Cc1ccc(N(CCCl)CCCl)cc1)C(=O)O [medphalan],activity against certain animal tumors relative to L-isomer (in words),certain animal tumors,less active
"COc1cccc2c1C(=O)c1c(O)c3c(c(O)c1C2=O)C[C@@](O)(C(C)=O)C[C@@H]3O[C@H]1C[C@H](N)[C@H](O)[C@H](C)O1 [daunorubicin, 5,12-Naphthacenedione, (8S-cis)-8-acetyl-10-[(3-amino-2,3,6-trideoxy-a-L-lyxo-hexanopyranosyl)oxy]-7,8,9,10-tetrahydro-6,8,11-trihydroxy-10-methoxy-, hydrochloride]",ceramide elevation (in words),P388 and U937 cells,stimulates ceramide elevation
same,distribution half-life,"[1]; in vivo, iv",0.75 h
same,elimination half-life,"[1]; in vivo, iv",about 19 hr
same,secreted into the bile,"[1]; in vivo, iv",~40%
same,absorption (in words),"[1]; in vivo, po",poor
CCCCCCCCCCCCCCC[C@@H](O)[C@@H](N)CO [sphinganine],"glycosylceramide (lipid-1 and -2) synthesis/mass on sphinganine supplement, MCF-7-AdrR (in words)",MCF-7-AdrR cells [2],accelerated synthesis; also recorded: strikingly more pronounced
same,"synthesis of lipid X, MCF-7-wt (in words)",MCF-7-wt cells,synthesis of lipid X increased
"COc1cccc2c1C(=O)c1c(O)c3c(c(O)c1C2=O)C[C@@](O)(C(=O)CO)C[C@@H]3O[C@H]1C[C@H](N)[C@H](O)[C@H](C)O1 [adriamycin, 5,12-Naphthacenedione, (8s-cis)-10-[(3-amino-2,3,6-trideoxy-a-L-lyxo-hexopyranosyl)oxy]-7,8,9,10-tetrahydro-6,8,11-trihydroxy-8-(hydroxyacetyl)-1-methoxy-hydrochloride]","cell death, adriamycin in the presence of tamoxifen","MCF-7-AdrR cells [3]; 5 μM adriamycin + 5.0 μM tamoxifen, 72 h, FIG. 15A",60%
same,cytotoxicity at 5 µM,"MCF-7-AdrR cells [3]; Homo sapiens, 72 h, read-out: cell death, adriamycin alone (maximal cytotoxic effect)",28%
same,effect of the substance alone on cell survival (in words),"MCF-7-AdrR cells [3]; MCF-7-AdrR, alone",minor effect; also recorded: largely without influence
same,inhibition at 2.5 µM,[4],17%
same,resistance of OVCAR-3 to the drug (in words),[5],resistant
same,elimination half-life,"[1]; in vivo, iv",about 30 hr
same,excreted into the urine,[1]; in vivo,a few percent
same,absorption (in words),[1]; oral or unspecified,absorbed poorly
Cc1cn([C@H]2C[C@H](N=[N+]=[N-])[C@@H](CO)O2)c(=O)[nH]c1=O [3'-azidothymidine],sphingoglycolipid metabolism (in words),[6],altered sphingoglycolipid metabolism
CCCCCCCCCCCCCCC[C@H](O)[C@@H](N)CO [safingol],inhibition of PKC activity (in words),PKC,inhibition of PKC activity
same,reversal of MDR (in words),[7],reversal of MDR
"CS(=O)(=O)OCCCCOS(C)(=O)=O [Busulfan, 1,4-butanediol dimethanesulfonate]",hematologic remission,[8],Approximately 90 % of adults
CC[C@]1(O)C[C@@H]2CN(CCc3c([nH]c4ccccc34)[C@@](C(=O)OC)(c3cc4c(cc3OC)N(C)[C@H]3[C@@](O)(C(=O)OC)[C@H](OC(C)=O)[C@]5(CC)C=CCN6CC[C@]43[C@@H]65)C2)C1 [vinblastine],significant improvement,[9],50 to 90 % of cases
same,"half-life of disappearance from plasma, first","[1]; in vivo, iv",approximately 1 hours
same,"half-life of disappearance from plasma, second","[1]; in vivo, iv",~20 h
same,Cmax,[1]; in vivo,~400 µM
same,distribution in blood cells (in words),[1]; in vivo,extensively concentrated in platelets
same,plasma protein binding (in words),[1]; in vivo,bind to plasma proteins
same,tolerability / toxicity (in words),[10],painful irritation and ulceration

# — US5885786A, “Methods for screening of substances for inhibition of multidrug resistance” (priority 1996, dated 1999)
